Measured values published in patent US10940139B2, “Compounds that interact with the Ras superfamily for the treatment of cancers, inflammatory diseases, rasopathies, and fibrotic disease” (Shy Therapeutics LLC, priority 2017, dated 2021).

molecular target: KRas G12D/Q61H double mutant (Homo sapiens (Human), UniProt P01116, G12D/Q61H); assay: Ras GTP binding domain inhibition assay (labeled GTP); details: 20 μM compound; read-out: % Inhibition at 20 μM KRas G12D Q61H
Method in brief: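 His-tagged KRas protein (3-10 μg/ml) was captured overnight at 4° C on nickel-coated wells in 50 mM Tris pH 7.5, 1 mM MgCl2, 1 mM DTT. Bound labeled GTP was read by fluorescence after washing.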

Sequence of KRas G12D/Q61H double mutant (P01116-2 other isoform, or with tags, fused parts or gaps G12D/Q61H): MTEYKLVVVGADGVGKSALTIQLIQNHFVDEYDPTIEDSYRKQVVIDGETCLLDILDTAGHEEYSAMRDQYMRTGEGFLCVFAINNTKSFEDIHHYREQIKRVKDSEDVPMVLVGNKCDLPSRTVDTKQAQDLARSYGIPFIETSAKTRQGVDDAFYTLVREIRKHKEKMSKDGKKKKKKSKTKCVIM

| inhibition at 20 µM | SMILES |
| --- | --- |
| 1 to 25% | CN(Cc1ccc(OCc2ccccn2)cc1)Cc1ccccc1OC(F)(F)F |
| 1 to 25% | CN(CC(=O)N1CCOCC1)C(=O)c1ccc(COc2ccc(F)cc2)o1 |
| 1 to 25% | COC(=O)c1ccc(C(=O)NCC(c2ccccc2)N2CCOCC2)nc1 (stereo not shown) |
| 1 to 25% | Cc1ccccc1CC(=O)N(CC(F)(F)F)C1CCCOC1 (stereo not shown) |
| 1 to 25% | C=CCn1c(SCc2csc(-c3cccc(OC)c3OC)n2)nc2ccccc21 |
| 1 to 25% | O=C(Nc1nnc(-c2ccccn2)[nH]1)c1cccc(Nc2ncccn2)c1 |
| 1 to 25% | COc1ccccc1CN(Cc1cccs1)C(=O)c1ccc(S(=O)(=O)N2CCOCC2)cc1 |
| 1 to 25% | c1cc2c(cc1-c1csc(C3CC3)n1)CCC2 |
| 1 to 25% | O=C1NCCCC1Nc1cc(C(F)(F)F)nc(-c2ccccn2)n1 (stereo not shown) |
| 1 to 25% | Cc1ccccc1OCCn1c(CN2CCOCC2)nc2ccccc21 |
| 1 to 25% | CCN(C(=O)c1ccc(COc2ccccc2F)o1)c1ccccc1C |
| 1 to 25% | COCc1ccc(C(=O)N(Cc2cccs2)Cc2ccccc2OC)cc1 |
| 1 to 25% | O=C(c1ccc(COc2ccccc2F)o1)N1CCOc2ccccc21 |
| 1 to 25% | CC(=O)Nc1cccc(C(C)N(Cc2ccccc2)Cc2nc(-c3ccc(Cl)cc3)no2)c1 (stereo not shown) |
| 1 to 25% | CCOCCCNC(=O)c1cc(S(=O)(=O)N(CC)CC)ccc1NCCOC |
| 1 to 25% | CCc1cc(NC(C)C(=O)N2CCOCC2)nc(-c2ccccn2)n1 (stereo not shown) |
| 1 to 25% | C=CCNC(=O)CN1CCOC(c2nc(-c3ccccc3)cs2)C1 (stereo not shown) |
| 1 to 25% | Cc1nc(-c2ccccn2)nc(NC(C)CO)c1C (stereo not shown) |
| 1 to 25% | COc1ccccc1CC(=O)N(CC(F)(F)F)C1CCCOC1 (stereo not shown) |
| 1 to 25% | CN(C(=O)c1ccc(COc2ccccc2)o1)C1CCCCC1 |
| 1 to 25% | CC(C)CN1CC(C(=O)Nc2nc(-c3ccccn3)cs2)CC1=O (stereo not shown) |
| 1 to 25% | COc1ccccc1CN(Cc1cccs1)C(=O)c1ccc(-c2nc(C)no2)cc1 |
| 1 to 25% | COc1ccccc1-c1nnc(CNc2ccc(Cl)cc2Cl)o1 |
| 1 to 25% | FC(F)(F)c1ccnc(N2CCCC2c2cccs2)n1 (stereo not shown) |
| 1 to 25% | CC(C)Cc1cc(C(=O)Nc2cc(-c3ccncc3)nn2C)[nH]n1 |
| 1 to 25% | O=C(NCCc1cccs1)c1cc(S(=O)(=O)N2CCCCC2)ccc1N1CCOCC1 |
| 1 to 25% | FC(F)(F)c1cccc(N2CCN(c3ncnc4sccc34)CC2)c1 |

| inhibition at 20 µM | SMILES |
| --- | --- |
| 1 to 25% | O=C(Nc1nnc(-c2ccccn2)s1)c1nccc2ccccc12 |
| 1 to 25% | COc1ccc(CCNC(=O)c2cc(S(=O)(=O)N3CCOCC3)ccc2OC)cc1OC |
| 1 to 25% | CN(C)C1CN(C(=O)Nc2nc(-c3cccnc3)cs2)C1 |
| 1 to 25% | COc1cc(C)ccc1OS(=O)(=O)N1CCc2ccccc2C1 |
| 1 to 25% | CC(C)Cc1nc(CN(C)CC(=O)Nc2ccc(Cl)c(S(=O)(=O)N3CCOCC3)c2)no1 |
| 1 to 25% | CCN(CC(=O)Nc1ccccc1OC)Cc1coc(-c2cccs2)n1 |
| 1 to 25% | Cc1cc(C)n2nc(CC(=O)N(Cc3ccc(F)cc3)C3CC3)nc2n1 |
| 1 to 25% | C#Cc1cccc(N(CC(=O)N2CCOCC2)C(=O)c2ccc(COc3ccccc3F)o2)c1 |
| 1 to 25% | N#CC1CN(c2nccc(C(F)(F)F)n2)CCN1Cc1ccccc1 (stereo not shown) |
| 1 to 25% | CCN(CC)S(=O)(=O)c1ccc(NCCOC)c(C(=O)NCCC(C)C)c1 |
| 1 to 25% | CN(c1ccccc1)c1ccccc1NCc1nnnn1-c1ccccc1 |
| 1 to 25% | O=C(NCc1ccccn1)c1csc(-c2ccc(Cl)cc2)n1 |
| 1 to 25% | Cc1cccc(Oc2ccc(S(=O)(=O)N3CCCCC3)cc2NCc2cc(C)on2)c1 |
| 1 to 25% | N#Cc1ccccc1CN1CCN(c2cccc(C(F)(F)F)c2)CC1 |
| 1 to 25% | Cc1cc(C2CCCN2c2cc(C(F)(F)F)nc3ncnn23)no1 (stereo not shown) |
| 1 to 25% | CCOC(=O)CCN(Cc1cccnc1)c1nc(C(F)(F)F)ccc1C#N |
| 1 to 25% | Cc1noc(CN(Cc2ccc(C#N)cc2)Cc2cccc(F)c2)n1 |
| 1 to 25% | Fc1ccccc1-c1csc(C2CN(Cc3ccccc3)CCO2)n1 (stereo not shown) |
| 1 to 25% | O=C(CCN1C(=O)NC2(CCCCC2)C1=O)Nc1nnc(-c2ccccn2)[nH]1 |
| 1 to 25% | CC(=O)Nc1ccc(C(F)(F)F)cc1NCc1nc(C)no1 |
| 1 to 25% | CCOC(=O)c1sc(N(C2CC2)S(=O)(=O)c2ccc(OC)c(C)c2)nc1C |
| 1 to 25% | Cc1cccc(OCCn2c(CN3CCCCC3)nc3ccccc32)c1C |
| 1 to 25% | CCCCCCNC(=O)c1cc(S(=O)(=O)N(C)C)ccc1N1CCOCC1 |
| 1 to 25% | CCOCc1c(C(=O)N(Cc2cccs2)Cc2ccccc2OC)oc2ccccc12 |
| 1 to 25% | Cc1nc(CNc2ccccc2Oc2cccc(F)c2)no1 |
| 1 to 25% | CC(=O)Nc1ccc(-c2nc(NC3CCCCC3)sc2C)cc1 |
| 1 to 25% | Cc1nc(-c2ccccn2)sc1C(=O)NCCNc1ncccn1 |

| inhibition at 20 µM | SMILES |
| --- | --- |
| 1 to 25% | Cc1ccc(-c2nnc(C(C)N3CCCc4ccccc43)o2)cc1 (stereo not shown) |
| 1 to 25% | CC(c1nc2ccccc2n1CCOc1ccccc1)N1CCCCC1 (stereo not shown) |
| 1 to 25% | CC1(C)NC(=O)N(CC(=O)Nc2nc(-c3ccccn3)cs2)C1=O |
| 1 to 25% | Cc1cccc(CN(Cc2ccccn2)Cc2ncc(C(C)(C)C)o2)c1 |
| 1 to 25% | CC(C)Cc1cc(C(=O)Nc2cc(-c3cccnc3)n[nH]2)[nH]n1 |
| 1 to 25% | COc1ccccc1CN(Cc1cccs1)C(=O)c1ccc(-c2nnn[nH]2)cc1 |
| 1 to 25% | CCc1cc(NNC(=O)C2CC2)nc(-c2ccccn2)n1 |
| 1 to 25% | CCCn1c(CNc2ccccc2OCCOC)nc2cc(S(=O)(=O)N(C)C)ccc21 |
| 1 to 25% | Cc1ccc(C)c(OCC(O)CN(c2nccs2)S(=O)(=O)c2ccccc2)c1 (stereo not shown) |
| 1 to 25% | Cc1ccc(CN(C(=O)c2cc(-c3ccccc3Cl)[nH]n2)C2CC2)o1 |
| 1 to 25% | CN(Cc1ccco1)C(=O)c1ccc(COc2ccccc2)o1 |
| 1 to 25% | O=C(c1nccc2ccccc12)N(Cc1nccn1C(F)F)C1CC1 |
| 1 to 25% | COc1cccc(OCCn2c(CN3CCOCC3)nc3ccccc32)c1 |
| 1 to 25% | N#Cc1ccccc1S(=O)(=O)NC(c1ccccc1)c1ccccn1 (stereo not shown) |
| 1 to 25% | CC(C)COC(C)c1noc(CN(Cc2ccccc2O)C(C)c2ccccc2)n1 (stereo not shown) |
| 1 to 25% | CN(Cc1ccc(C(F)(F)F)cc1)Cc1cc([N+](=O)[O-])cc2c1OCOC2 |
| 1 to 25% | CCOc1ccc(NC(=O)CN(C)Cc2coc(-c3ccc(C)cc3C)n2)cc1OCC |
| 1 to 25% | O=C(c1cc(-c2ccc(F)cc2)[nH]n1)N(Cc1ccco1)C1CCCC1 |
| 1 to 25% | CN(Cc1nnc(-c2ccccc2Cl)o1)Cc1ccccc1N1CCCC1 |
| 1 to 25% | COC(=O)CCN(Cc1cc(Br)cc(C(F)(F)F)c1)C1CCOCC1 |
| 1 to 25% | CC(C)N(Cc1ccccn1)Cc1nc2ccccc2n1C(F)F |
| 1 to 25% | Cc1noc(CN2CCOC(c3nc(-c4ccccc4)cs3)C2)n1 (stereo not shown) |
| 1 to 25% | CN(C)C(=O)CCN1CCOC(c2nc(-c3ccccc3)cs2)C1 (stereo not shown) |
| 1 to 25% | Cc1cccc(OC2CCN(c3nc(-c4ccccn4)nc4c3CCC4)CC2)n1 |
| 1 to 25% | CN(Cc1nnc(-c2ccccc2)o1)Cc1ccccc1N1CCCC1 |
